One test has as its system Zymoseptoria tritici. Kind of test: Fungicidal activity: leaf blotch of wheat (SEPTTR), wheat seedlings, booth sprayer to run-off or track spray. Format: in vivo. Particulars: Low-Volume Cereal Activity at 121.5 g/H.
Another test relates to Puccinia triticina. Kind of test: Fungicidal activity: wheat brown rust (PUCCRT), wheat seedlings, booth sprayer to run-off or track spray. Format: in vivo. The settings on record: Low-Volume Cereal Activity at 121.5 g/H.
Where [1] appears, read: 24 h, 1 Day Protectant, read-out: SEPTTR 1DP.
Setting [2] is: 72 h, 3 Day Curative, read-out: SEPTTR 3DC.
[3] abbreviates: 24 h, 1 Day Protectant, read-out: PUCCRT 1DP.
[4] abbreviates: 72 h, 3 Day Curative, read-out: PUCCRT 3DC.

Read-outs that look alike come from different tables or passages of the source.

Our source for the pest or weed control values is patent US10173971B2, “Picolinamides with fungicidal activity” (DOW AGROSCIENCES LLC, priority 2014, dated 2019).

Consider `COc1ccnc(C(=O)N[C@@H](C)C(=O)O[C@@H](C)[C@H](Cc2ccc(Cl)cc2)c2ccccc2)c1OCOC(C)=O` [compound 203], for which the pest or weed control at 121.5 g/ha in the test with Zymoseptoria tritici (setting [1]) was 80 to 100%; in the test with Zymoseptoria tritici (setting [2]), 80 to 100%; in the test on Puccinia triticina (setting [3]) it was 80 to 100%; in the test on Puccinia triticina (setting [4]) it was 0 to 80%.

For `COc1ccnc(C(=O)N[C@@H](C)C(=O)O[C@@H](C)[C@H](Cc2ccc(Cl)cc2)c2ccccc2)c1OCOC(=O)C(C)C` [compound 204], the pest or weed control at 121.5 g/ha in the test on Zymoseptoria tritici (setting [1]) lay in the range of 80 to 100%; in the test with Zymoseptoria tritici (setting [2]), 80 to 100%; with Puccinia triticina (setting [3]), 0 to 80%; with Puccinia triticina (setting [4]), 0 to 80%.

For `COc1ccnc(C(=O)N[C@@H](C)C(=O)O[C@@H](C)[C@H](Cc2ccccc2)C(C)C)c1OC(C)=O` [compound 205], the pest or weed control at 121.5 g/ha in the test on Zymoseptoria tritici (setting [1]), with Zymoseptoria tritici (setting [2]), with Puccinia triticina (setting [3]) and in the test on Puccinia triticina (setting [4]) was 80 to 100% throughout.

On to `COc1ccnc(C(=O)N[C@@H](C)C(=O)O[C@@H](C)[C@H](Cc2ccccc2)C(C)C)c1OCOC(C)=O` [compound 206], for which the pest or weed control at 121.5 g/ha in the test with Zymoseptoria tritici (setting [1]), with Zymoseptoria tritici (setting [2]), with Puccinia triticina (setting [3]) and in the test with Puccinia triticina (setting [4]) was 80 to 100% in each case.

Take `CCCOC(C)(C)[C@@H](Cc1ccccc1)[C@H](C)OC(=O)[C@H](C)NC(=O)c1nccc(OC)c1OCOC(C)=O` [compound 207]: the pest or weed control at 121.5 g/ha with Zymoseptoria tritici (setting [1]), with Zymoseptoria tritici (setting [2]), in the test on Puccinia triticina (setting [3]) and in the test on Puccinia triticina (setting [4]) was 80 to 100% throughout.

On to `COc1ccnc(C(=O)N[C@@H](C)C(=O)O[C@@H](C)[C@@H](COc2ccccc2)Cc2ccccc2)c1OCOC(C)=O` [compound 208], for which the pest or weed control at 121.5 g/ha in the test on Zymoseptoria tritici (setting [1]) lay within 80 to 100%; in the test on Zymoseptoria tritici (setting [2]), 0 to 80%; in the test on Puccinia triticina (setting [3]), 80 to 100%; in the test on Puccinia triticina (setting [4]) it was 0 to 80%.

`COc1ccnc(C(=O)N[C@@H](C)C(=O)O[C@@H](C)[C@@H](COc2ccc(Cl)cc2Cl)Cc2ccccc2)c1OCOC(C)=O` [compound 209]: the pest or weed control at 121.5 g/ha in the test with Zymoseptoria tritici (setting [1]), with Zymoseptoria tritici (setting [2]) and in the test with Puccinia triticina (setting [3]) was 0 to 80% in each case.

In the case of `COc1ccnc(C(=O)N[C@@H](C)C(=O)O[C@@H](C)[C@H](CCC(C)C)c2ccccc2)c1OC(C)=O` [compound 210], the pest or weed control at 121.5 g/ha lay in the range of 80 to 100% in the test on Zymoseptoria tritici (setting [1]), 80 to 100% with Zymoseptoria tritici (setting [2]), 80 to 100% in the test with Puccinia triticina (setting [3]) and 0 to 80% in the test with Puccinia triticina (setting [4]).

For `COc1ccnc(C(=O)N[C@@H](C)C(=O)O[C@@H](C)[C@H](CCC(C)C)c2ccccc2)c1OC(=O)C(C)C` [compound 211], the values for the pest or weed control at 121.5 g/ha in the test on Zymoseptoria tritici (setting [1]), in the test with Zymoseptoria tritici (setting [2]) and with Puccinia triticina (setting [3]) were 80 to 100%, 80 to 100% and 0 to 80%, respectively.

On to `COCCC(=O)Oc1c(OC)ccnc1C(=O)N[C@@H](C)C(=O)O[C@@H](C)[C@H](CCC(C)C)c1ccccc1` [compound 212], for which the pest or weed control at 121.5 g/ha in the test with Zymoseptoria tritici (setting [1]), in the test with Zymoseptoria tritici (setting [2]), in the test with Puccinia triticina (setting [3]) and in the test on Puccinia triticina (setting [4]) was 80 to 100% each time.

Regarding `COc1ccnc(C(=O)N[C@@H](C)C(=O)O[C@@H](C)[C@H](CCC(C)C)c2ccccc2)c1OCOC(C)=O` [compound 213], the pest or weed control at 121.5 g/ha in the test on Zymoseptoria tritici (setting [1]), in the test with Zymoseptoria tritici (setting [2]), in the test with Puccinia triticina (setting [3]) and in the test on Puccinia triticina (setting [4]) was 80 to 100% each time.

On to `COc1ccnc(C(=O)N[C@@H](C)C(=O)O[C@@H](C)[C@H](CCC(C)C)c2ccccc2)c1OCOC(=O)C(C)C` [compound 214], for which the pest or weed control at 121.5 g/ha in the test on Zymoseptoria tritici (setting [1]), in the test with Zymoseptoria tritici (setting [2]), in the test with Puccinia triticina (setting [3]) and in the test with Puccinia triticina (setting [4]) was 80 to 100% in each case.

As to `CCOCC(=O)OCOc1c(OC)ccnc1C(=O)N[C@@H](C)C(=O)O[C@@H](C)[C@H](CCC(C)C)c1ccccc1` [compound 215], the pest or weed control at 121.5 g/ha in the test with Zymoseptoria tritici (setting [1]), in the test with Zymoseptoria tritici (setting [2]), in the test with Puccinia triticina (setting [3]) and with Puccinia triticina (setting [4]) was 80 to 100% each time.

As for `COc1ccnc(C(=O)N[C@@H](C)C(=O)O[C@@H](C)[C@H](Cc2ccc(Cl)c(Cl)c2)c2ccccc2)c1OC(C)=O` [compound 216], the pest or weed control at 121.5 g/ha with Zymoseptoria tritici (setting [1]) was in the range of 80 to 100%; in the test on Zymoseptoria tritici (setting [2]), 0 to 80%; in the test with Puccinia triticina (setting [3]), 0 to 80%; with Puccinia triticina (setting [4]), 0 to 80%.

Regarding `COc1ccnc(C(=O)N[C@@H](C)C(=O)O[C@@H](C)[C@H](Cc2ccc(Cl)c(Cl)c2)c2ccccc2)c1OCOC(C)=O` [compound 218], the pest or weed control at 121.5 g/ha with Zymoseptoria tritici (setting [1]) is 80 to 100%; in the test with Zymoseptoria tritici (setting [2]), 0 to 80%; with Puccinia triticina (setting [3]), 0 to 80%; in the test on Puccinia triticina (setting [4]), 0 to 80%.

Regarding `COc1ccnc(C(=O)N[C@@H](C)C(=O)O[C@@H](C)[C@H](Cc2ccc(Cl)c(Cl)c2)c2ccccc2)c1OCOC(=O)C(C)C` [compound 219], the pest or weed control at 121.5 g/ha in the test with Zymoseptoria tritici (setting [1]), with Zymoseptoria tritici (setting [2]), with Puccinia triticina (setting [3]) and in the test on Puccinia triticina (setting [4]) was 0 to 80% each time.

Consider `COc1ccnc(C(=O)N[C@@H](C)C(=O)O[C@@H](C)[C@H](Cc2ccc(C)cc2)c2ccccc2)c1OC(C)=O` [compound 220], for which the pest or weed control at 121.5 g/ha was 80 to 100% in the test with Zymoseptoria tritici (setting [1]), 80 to 100% in the test with Zymoseptoria tritici (setting [2]), 0 to 80% in the test with Puccinia triticina (setting [3]) and 0 to 80% in the test on Puccinia triticina (setting [4]).

`COc1ccnc(C(=O)N[C@@H](C)C(=O)O[C@@H](C)[C@H](Cc2ccc(C)cc2)c2ccccc2)c1OCOC(C)=O` [compound 221]: the pest or weed control at 121.5 g/ha in the test with Zymoseptoria tritici (setting [1]) was 80 to 100%; with Zymoseptoria tritici (setting [2]) it was 80 to 100%; in the test with Puccinia triticina (setting [3]), 80 to 100%; with Puccinia triticina (setting [4]), 0 to 80%.

Regarding `COc1ccnc(C(=O)N[C@@H](C)C(=O)O[C@@H](C)[C@H](Cc2ccc(F)cc2)c2ccccc2)c1OCOC(C)=O` [compound 222], the pest or weed control at 121.5 g/ha in the test on Zymoseptoria tritici (setting [1]), in the test on Zymoseptoria tritici (setting [2]) and in the test with Puccinia triticina (setting [3]) was 80 to 100% in each case.

For the molecule `COc1ccnc(C(=O)N[C@@H](C)C(=O)O[C@@H](C)[C@H](Cc2ccc(F)cc2)c2ccccc2)c1OCOC(=O)C(C)C` [compound 223], the pest or weed control at 121.5 g/ha was 80 to 100% in the test with Zymoseptoria tritici (setting [1]), 80 to 100% in the test on Zymoseptoria tritici (setting [2]), 80 to 100% in the test on Puccinia triticina (setting [3]) and 0 to 80% in the test with Puccinia triticina (setting [4]).

In the case of `COc1ccnc(C(=O)N[C@@H](C)C(=O)O[C@@H](C)[C@H](Cc2ccc3ccccc3c2)c2ccccc2)c1OC(C)=O` [compound 224], the pest or weed control at 121.5 g/ha with Zymoseptoria tritici (setting [1]), in the test with Zymoseptoria tritici (setting [2]) and in the test with Puccinia triticina (setting [3]) was 0 to 80% throughout.

As to `COc1ccnc(C(=O)N[C@@H](C)C(=O)O[C@@H](C)[C@H](Cc2ccc3ccccc3c2)c2ccccc2)c1OCOC(C)=O` [compound 225], the pest or weed control at 121.5 g/ha with Zymoseptoria tritici (setting [1]), in the test on Zymoseptoria tritici (setting [2]), with Puccinia triticina (setting [3]) and in the test with Puccinia triticina (setting [4]) was 0 to 80% in each case.

`COc1ccnc(C(=O)N[C@@H](C)C(=O)O[C@@H](C)[C@H](Cc2ccc3ccccc3c2)c2ccccc2)c1OCOC(=O)C(C)C` [compound 226]: the pest or weed control at 121.5 g/ha in the test with Zymoseptoria tritici (setting [1]), in the test on Zymoseptoria tritici (setting [2]) and in the test on Puccinia triticina (setting [3]) was 0 to 80% in each case.

Turning to `COc1ccnc(C(=O)N[C@@H](C)C(=O)O[C@@H](C)[C@@H](COCc2ccccc2)Cc2ccccc2)c1OC(C)=O` [compound 227], the pest or weed control at 121.5 g/ha with Zymoseptoria tritici (setting [1]) is 80 to 100%; with Zymoseptoria tritici (setting [2]), 0 to 80%; with Puccinia triticina (setting [3]) it was 0 to 80%; with Puccinia triticina (setting [4]) it was 0 to 80%.

On to `COc1ccnc(C(=O)N[C@@H](C)C(=O)O[C@@H](C)[C@@H](COCc2ccccc2)Cc2ccc(F)cc2)c1OC(C)=O` [compound 228], for which the pest or weed control at 121.5 g/ha in the test on Zymoseptoria tritici (setting [1]) fell in the range of 80 to 100%; in the test on Zymoseptoria tritici (setting [2]) it was 0 to 80%; in the test on Puccinia triticina (setting [3]), 0 to 80%; with Puccinia triticina (setting [4]) it was 0 to 80%.

For `COc1ccnc(C(=O)N[C@@H](C)C(=O)O[C@@H](C)[C@H](Cc2ccc(F)cc2)C(C)(C)OCc2ccccc2)c1OC(C)=O` [compound 229], the pest or weed control at 121.5 g/ha lay in the range of 80 to 100% with Zymoseptoria tritici (setting [1]), 0 to 80% in the test on Zymoseptoria tritici (setting [2]) and 0 to 80% with Puccinia triticina (setting [3]).

Consider `COc1ccnc(C(=O)N[C@@H](C)C(=O)O[C@@H](C)[C@H](Cc2ccccc2)C(C)(C)OCc2ccccc2)c1OC(C)=O` [compound 230], for which the pest or weed control at 121.5 g/ha lay within 80 to 100% in the test on Zymoseptoria tritici (setting [1]), 80 to 100% in the test with Zymoseptoria tritici (setting [2]), 80 to 100% in the test on Puccinia triticina (setting [3]) and 0 to 80% in the test with Puccinia triticina (setting [4]).

Turning to `COC[C@@H](Cc1ccc(F)cc1)[C@H](C)OC(=O)[C@H](C)NC(=O)c1nccc(OC)c1OC(C)=O` [compound 231], the pest or weed control at 121.5 g/ha with Zymoseptoria tritici (setting [1]), in the test on Zymoseptoria tritici (setting [2]), with Puccinia triticina (setting [3]) and with Puccinia triticina (setting [4]) was 0 to 80% throughout.

Regarding `COc1ccnc(C(=O)N[C@@H](C)C(=O)O[C@@H](C)[C@H](Cc2ccc(F)cc2)C(C)(C)OC)c1OC(C)=O` [compound 232], the pest or weed control at 121.5 g/ha with Zymoseptoria tritici (setting [1]), in the test with Zymoseptoria tritici (setting [2]) and in the test with Puccinia triticina (setting [3]) was 0 to 80% each time.

With `CCOCC(=O)OCOc1c(OC)ccnc1C(=O)N[C@@H](C)C(=O)O[C@@H](C)[C@@H](COCc1ccccc1)Cc1ccc(F)cc1` [compound 233], the pest or weed control at 121.5 g/ha was 0 to 80% in the test on Zymoseptoria tritici (setting [1]), 0 to 80% with Zymoseptoria tritici (setting [2]), 80 to 100% with Puccinia triticina (setting [3]) and 0 to 80% in the test with Puccinia triticina (setting [4]).
